The results in this text go back to ChEMBL document CHEMBL1201862, “PubChem BioAssay data set” (2004).

The term Ki denotes the equilibrium dissociation constant of an inhibitor or competing ligand from its target. In general, CC50 refers to the concentration giving 50% cytotoxicity. What is called EC50 is the concentration that produces a half-maximal response. One may read the AC50 as the concentration at which the activity in the assay is half-maximal.

The structures appear in SMILES notation. The source made the active and inactive calls. Bounds are passed on as bounds.

The target of one assay is fMet-Leu-Phe receptor (Homo sapiens, UniProt P21462). Description: formyl peptide receptor binders – dose response (AID 519). In kind it is functional.
Chain of fMet-Leu-Phe receptor (P21462 whole entry): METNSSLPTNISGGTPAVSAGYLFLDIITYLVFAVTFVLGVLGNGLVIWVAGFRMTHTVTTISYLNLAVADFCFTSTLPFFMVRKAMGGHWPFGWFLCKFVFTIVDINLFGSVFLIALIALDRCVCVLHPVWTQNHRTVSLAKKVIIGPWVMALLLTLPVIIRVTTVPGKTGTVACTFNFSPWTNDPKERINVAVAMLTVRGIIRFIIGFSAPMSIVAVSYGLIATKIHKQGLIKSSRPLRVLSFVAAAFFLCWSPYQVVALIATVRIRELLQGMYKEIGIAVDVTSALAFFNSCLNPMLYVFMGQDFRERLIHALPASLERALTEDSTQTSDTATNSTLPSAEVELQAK
A short description of assay [1]: viability loss in THP-1 monocytes – THP-1 cells, cytotoxicity control for Vif-APOBEC3G degradation inhibitor project, dose response (AID 1117359). In kind it is functional. As to conditions: THP-1.
For assay [2], the target named is T1, Short transient receptor potential channel 4 (Mus musculus, UniProt Q9QUQ5).
T1 sequence (Q9QUQ5 whole entry): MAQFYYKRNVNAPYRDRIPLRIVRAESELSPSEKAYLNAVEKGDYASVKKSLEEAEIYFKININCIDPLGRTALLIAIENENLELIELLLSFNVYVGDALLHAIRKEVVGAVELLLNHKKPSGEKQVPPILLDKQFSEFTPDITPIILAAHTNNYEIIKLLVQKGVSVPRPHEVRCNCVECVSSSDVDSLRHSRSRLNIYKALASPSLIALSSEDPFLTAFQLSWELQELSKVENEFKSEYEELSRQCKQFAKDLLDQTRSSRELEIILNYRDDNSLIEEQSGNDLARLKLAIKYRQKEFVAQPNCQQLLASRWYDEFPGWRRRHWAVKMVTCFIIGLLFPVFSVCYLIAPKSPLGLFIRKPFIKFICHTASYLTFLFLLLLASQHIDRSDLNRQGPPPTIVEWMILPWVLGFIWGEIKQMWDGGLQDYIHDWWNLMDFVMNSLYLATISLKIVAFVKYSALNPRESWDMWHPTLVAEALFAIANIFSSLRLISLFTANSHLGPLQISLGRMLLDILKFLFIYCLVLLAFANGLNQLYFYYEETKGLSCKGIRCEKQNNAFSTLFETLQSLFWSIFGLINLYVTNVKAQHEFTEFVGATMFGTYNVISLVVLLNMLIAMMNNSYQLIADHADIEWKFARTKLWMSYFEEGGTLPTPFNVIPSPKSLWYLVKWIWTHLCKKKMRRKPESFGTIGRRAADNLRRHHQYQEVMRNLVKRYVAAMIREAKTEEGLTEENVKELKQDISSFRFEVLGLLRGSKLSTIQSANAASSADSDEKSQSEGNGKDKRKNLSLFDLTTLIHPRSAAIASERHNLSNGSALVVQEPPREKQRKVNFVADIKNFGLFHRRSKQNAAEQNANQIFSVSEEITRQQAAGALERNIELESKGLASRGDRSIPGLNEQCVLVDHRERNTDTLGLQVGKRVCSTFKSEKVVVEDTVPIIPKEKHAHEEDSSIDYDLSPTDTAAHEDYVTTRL
Description: block of DAMGO-driven TRPC4 calcium entry – cell-based, HEK293 TRPC4/mu-opioid, Fluo-4 calcium, dose response (AID 434942).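 Also: potency of inhibitors blocking the TRPC4 calcium response.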 In kind it is functional.

A short description of assay [3]: viability loss in Vero cells – cytotoxicity control for Vif-APOBEC3G degradation inhibitor project, dose response (AID 1117358). In kind it is functional. To be noted: Vero.
The target of assay [4] is Sphingosine 1-phosphate receptor 2 (Homo sapiens, UniProt O95136). The assay is described as follows: Dose Response Cell Based Assay for Agonists of the S1P2 Receptor. [Related pubchem assays: 729, 736, 843 ]. In kind it is functional.
Chain of Sphingosine 1-phosphate receptor 2 (O95136 whole entry): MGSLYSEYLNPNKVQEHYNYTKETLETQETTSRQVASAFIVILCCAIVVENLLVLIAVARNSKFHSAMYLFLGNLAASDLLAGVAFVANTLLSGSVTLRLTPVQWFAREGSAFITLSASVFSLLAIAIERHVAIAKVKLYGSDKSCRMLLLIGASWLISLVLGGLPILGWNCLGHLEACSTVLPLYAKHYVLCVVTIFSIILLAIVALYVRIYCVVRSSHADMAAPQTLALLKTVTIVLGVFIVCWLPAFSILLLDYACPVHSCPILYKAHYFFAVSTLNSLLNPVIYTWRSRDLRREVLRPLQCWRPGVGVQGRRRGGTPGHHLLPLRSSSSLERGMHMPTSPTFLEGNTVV
Assay [5] has as its target Voltage-dependent T-type calcium channel subunit alpha-1H (Homo sapiens, UniProt O95180). In kind it is functional.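 Also: channel activity triggered by adding a high calcium stimulation buffer.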
Assay [6] deals with Streptococcus sp. 'group A'. Description: Streptococcus pyogenes SK(-)GAS viability under kanamycin – luminescence, BacTiterGlo, confirmation, counter-screen for streptokinase expression inhibitor project, dose response (AID 1900). In kind it is functional, organism-based. A general note: The purpose of a counterscreen is to sort out artefacts and off-target activity.
For a further assay, the target named is T2, Streptokinase A (Streptococcus pyogenes serotype M1, UniProt P10520).
T2 sequence (P10520 whole entry): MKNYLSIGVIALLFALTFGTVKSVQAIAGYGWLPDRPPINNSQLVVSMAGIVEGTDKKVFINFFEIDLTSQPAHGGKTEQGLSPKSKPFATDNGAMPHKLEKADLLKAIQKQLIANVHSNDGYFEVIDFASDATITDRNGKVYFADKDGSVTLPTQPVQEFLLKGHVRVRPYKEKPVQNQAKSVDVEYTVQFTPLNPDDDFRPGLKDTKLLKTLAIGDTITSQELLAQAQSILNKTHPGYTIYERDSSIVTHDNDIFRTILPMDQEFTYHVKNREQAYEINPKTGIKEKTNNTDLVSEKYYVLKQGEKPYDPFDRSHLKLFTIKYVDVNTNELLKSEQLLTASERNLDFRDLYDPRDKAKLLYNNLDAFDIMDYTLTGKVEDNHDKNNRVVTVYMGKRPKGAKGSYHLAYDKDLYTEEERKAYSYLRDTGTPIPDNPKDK
The assay is described as follows: viability-normalized secreted streptokinase activity reduction – plasminogen activation absorbance, OD405, dose response (AID 1914).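 Also: secreted streptokinase activity via plasminogen activation per viability signal from cell pellet.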 In kind it is functional, Streptococcus pyogenes M1 GAS.

Another assay concerns Streptococcus. Description: GAS UMAA2166 growth inhibition – luminescence, BacTiterGlo, counter-screen for streptokinase expression inhibitor project, dose response (AID 1915).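 Also: potency for reduction of bacterial viability or growth.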 In kind it is functional, organism-based.
The test system of another assay is HEK293. The assay is described as follows: EBV LMP1 TES2 canonical NF-kB signalling blockers – cell-based, HEK293, luciferase, cherry-pick, dose response (AID 588343). As to conditions: Homo sapiens. In kind it is functional.
The subject of the next assay is INS1. The assay is described as follows: INS-1E survival protection against cytokine death – cell-based, luminescence, retest, dose response (AID 449756).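 Also: cell death triggered by IL-1 beta plus TNF-alpha plus IFN-gamma mixture; protective hits raise ATP signal compared with cytokine alone wells.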 In kind it is functional. To be noted: Rattus norvegicus.

Chain of Voltage-dependent T-type calcium channel subunit alpha-1H (O95180 whole entry): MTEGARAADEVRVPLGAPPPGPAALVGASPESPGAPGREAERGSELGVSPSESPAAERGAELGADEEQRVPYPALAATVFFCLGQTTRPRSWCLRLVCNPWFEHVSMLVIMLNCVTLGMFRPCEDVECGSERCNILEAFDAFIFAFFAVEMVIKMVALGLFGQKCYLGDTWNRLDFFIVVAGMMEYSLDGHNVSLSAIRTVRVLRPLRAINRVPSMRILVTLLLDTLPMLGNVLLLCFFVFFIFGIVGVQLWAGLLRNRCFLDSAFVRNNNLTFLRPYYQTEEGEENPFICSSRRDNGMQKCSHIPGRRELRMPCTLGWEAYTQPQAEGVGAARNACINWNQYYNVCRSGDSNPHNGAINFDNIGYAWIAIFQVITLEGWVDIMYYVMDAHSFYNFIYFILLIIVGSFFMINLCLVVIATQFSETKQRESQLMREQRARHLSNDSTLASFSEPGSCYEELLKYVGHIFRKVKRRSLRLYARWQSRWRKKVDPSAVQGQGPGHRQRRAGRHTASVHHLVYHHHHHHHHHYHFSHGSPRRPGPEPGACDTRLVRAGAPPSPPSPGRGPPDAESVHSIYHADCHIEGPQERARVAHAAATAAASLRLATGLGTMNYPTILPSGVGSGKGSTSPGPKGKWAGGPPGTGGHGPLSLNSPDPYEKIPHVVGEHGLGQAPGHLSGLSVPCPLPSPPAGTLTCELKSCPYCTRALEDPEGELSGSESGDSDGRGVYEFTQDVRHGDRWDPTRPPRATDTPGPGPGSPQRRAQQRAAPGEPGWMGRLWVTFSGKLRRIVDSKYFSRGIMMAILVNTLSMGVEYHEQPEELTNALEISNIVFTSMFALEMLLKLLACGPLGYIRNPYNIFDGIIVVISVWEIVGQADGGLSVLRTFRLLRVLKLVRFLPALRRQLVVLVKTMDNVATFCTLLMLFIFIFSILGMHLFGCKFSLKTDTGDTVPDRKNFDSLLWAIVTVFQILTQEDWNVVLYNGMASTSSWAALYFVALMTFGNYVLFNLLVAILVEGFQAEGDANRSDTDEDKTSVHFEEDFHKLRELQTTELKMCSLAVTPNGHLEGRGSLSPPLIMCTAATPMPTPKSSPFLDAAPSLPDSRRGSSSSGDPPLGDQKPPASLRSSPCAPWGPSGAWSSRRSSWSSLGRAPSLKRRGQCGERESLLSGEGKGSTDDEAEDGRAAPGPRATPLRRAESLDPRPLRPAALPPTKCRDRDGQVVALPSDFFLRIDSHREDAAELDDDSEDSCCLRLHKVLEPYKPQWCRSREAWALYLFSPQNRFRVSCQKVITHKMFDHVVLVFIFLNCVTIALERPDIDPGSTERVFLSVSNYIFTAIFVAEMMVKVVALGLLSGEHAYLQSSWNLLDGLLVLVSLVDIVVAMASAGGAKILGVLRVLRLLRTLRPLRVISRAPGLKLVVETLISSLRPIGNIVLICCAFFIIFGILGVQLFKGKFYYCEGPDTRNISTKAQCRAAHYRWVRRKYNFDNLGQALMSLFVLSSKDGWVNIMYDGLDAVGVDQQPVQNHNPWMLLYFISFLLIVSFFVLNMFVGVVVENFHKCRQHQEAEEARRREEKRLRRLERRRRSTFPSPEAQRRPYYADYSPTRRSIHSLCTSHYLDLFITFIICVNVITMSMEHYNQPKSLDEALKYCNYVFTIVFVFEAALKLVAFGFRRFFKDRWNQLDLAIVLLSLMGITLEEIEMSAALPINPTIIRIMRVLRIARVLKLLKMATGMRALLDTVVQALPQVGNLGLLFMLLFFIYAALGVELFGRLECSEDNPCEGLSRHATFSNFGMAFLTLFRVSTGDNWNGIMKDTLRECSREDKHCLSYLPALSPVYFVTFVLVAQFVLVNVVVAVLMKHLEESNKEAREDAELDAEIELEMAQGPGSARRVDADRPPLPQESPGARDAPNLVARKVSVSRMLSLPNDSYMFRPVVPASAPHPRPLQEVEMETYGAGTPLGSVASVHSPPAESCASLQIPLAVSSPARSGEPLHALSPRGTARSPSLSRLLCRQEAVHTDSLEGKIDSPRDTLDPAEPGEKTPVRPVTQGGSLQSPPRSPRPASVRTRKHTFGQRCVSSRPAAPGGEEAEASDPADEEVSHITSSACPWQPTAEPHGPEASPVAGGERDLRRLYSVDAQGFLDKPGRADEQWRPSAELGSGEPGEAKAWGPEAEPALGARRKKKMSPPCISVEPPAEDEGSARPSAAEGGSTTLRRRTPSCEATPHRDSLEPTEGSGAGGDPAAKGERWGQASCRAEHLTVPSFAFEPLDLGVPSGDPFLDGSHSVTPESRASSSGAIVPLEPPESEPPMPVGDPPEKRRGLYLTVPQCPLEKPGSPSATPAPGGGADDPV

Turning to `O=C(NC1CCCC1)C1CC1c1ccccc1` (configuration not stated), the Ki at fMet-Leu-Phe receptor was > 66.7 µM (inactive).
In the case of `CCN(c1ccccc1)S(=O)(=O)c1ccc(C(=O)NNC(=O)c2ccccc2F)cc1`, the CC50 in [1] is 23.5 µM (active).
With `COc1cc(CNCCc2ccc(F)cc2)ccc1OCc1ccc(Cl)nc1`, in assay [2], the concentration giving a half-maximal response (EC50) is 1.88 µM (active). Further, the CC50 in assay [3] is 26.1 µM (active).
In the case of `O=C(Cc1c[nH]c2ccccc12)Nc1nc2ccccc2[nH]1`, the values for the EC50 in assay [4] and in [5] were > 50 µM (not active) and 6.91 µM (active), respectively.
In the case of `Oc1c2c(nc3c(-c4ccc(Cl)cc4)cnn13)CCCC2`, the concentration for a half-maximal effect (EC50) in assay [6] was 3.64 µM (active); at Streptokinase A it was > 150 µM (not active); in the assay with Streptococcus, 9.5 µM (active). Further, the values for the AC50 in the assay with HEK293 and in the assay with INS1 were 2.89 µM (active) and 2.37 µM (active), respectively. Also, the Ki on fMet-Leu-Phe receptor is > 66.7 µM (inactive).
